Test results from US20150164866A1, “METHODS OF ADMINISTERING RIFAXIMIN FOR WEIGHT LOSS AND TREATMENT OF OBESITY” (Salix Pharmaceuticals, Ltd, priority 2012, published 2015).

Columns and labels:
[1] = Pilot randomized placebo-controlled study of weight loss in obese patients (BMI>30); assay type: in vivo, human
From the text: (§1) Patients were followed for up to six months. The primary endpoint was weight loss at the end of the study. Laboratory assessments including a basic metabolic panel, liver enzymes, lipid profile, and HbA1c (glucose testing) were obtained pre- and post-treatment.
(§2) Baseline demographic characteristics included median age of 45 (range 18-62) years, gender (73% female) average starting weight of 238.5±77.1 lbs and BMI of 38.8±9.7. Common co-morbidities included GERD (37%), hypertension (32%), diabetes (19%), and lipid disorders (14%). […] Weight loss in the rifaximin group was statistically significant (P<0.03) when compared to baseline weight. Diabetics tended to lose more weight (−6.1 lbs), and patients with underlying lipid disorders lost the least (−0.7 lbs).

[2] = Laboratory assessments (lipid profile) pre- and post-treatment in obese patients; assay type: in vivo, human; conditions: RFX vs. PBO, p<0.04; 550 mg twice daily for 20 days
From the text: as §1, §2

[3] = tested on: species of Staphylococcus, Streptococcus, Enterococcus, and Enterobacteriaceae; conditions: in vitro data; cited from earlier work

Triglycerides difference pre- to post-treatment [2]: +15.9
Compound: COC1/C=C/OC2(C)Oc3c(C)c(O)c4c(O)c(c5c(nc6cc(C)ccn65)c4c3C2=O)NC(=O)/C(C)=C\C=C\C(C)C(O)C(C)C(O)C(C)C(OC(C)=O)C1C (stereo not shown) [RFX]
mean weight lost ([1]; first study visit following treatment, 550 mg twice daily for 20 days, patients with BMI>30): 1.1 lbs
mean weight lost at the end of the study ([1]; mean follow-up of 4.9 months, 550 mg twice daily for 20 days, P<0.03 compared to baseline weight): 4.5 lbs
weight loss as compared to placebo patients ([1]; obese patients (BMI>30), pilot study): greater weight loss
weight change in diabetics ([1]; subgroup: diabetics, 550 mg twice daily for 20 days): −6.1 lbs
weight change in patients with underlying lipid disorders ([1]; subgroup: underlying lipid disorders, 550 mg twice daily for 20 days): −0.7 lbs
antibacterial activity in vitro [3]: active
